Laboratory results published in ChEMBL document CHEMBL1201862, “PubChem BioAssay data set” (2004).
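Growth conditions: 96-well plates. Treatment: test compound, 48 hours, 5 concentrations. Analysis: linear interpolation between bracketing concentrations; unreached endpoints set to highest concentration. GI50 is the concentration that inhibits growth by half.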 The source made the active and inactive calls. No stated cut-off is given here; in the data, active = GI50 up to about 1.1 µM and inactive = higher.

Assays:
Test in all cases: NCI anticancer screen, dose series, 48 h
HOP-92 = system: HOP-92
DU-145 = system: DU-145
TK-10 = system: TK-10
UACC-62 = system: UACC-62
A498 = system: A498
NCI-H522 = system: NCI-H522
MDA-N = system: MDA-N
RXF 393 = system: RXF 393
HT-29 = system: HT-29
MOLT-4 = system: MOLT-4
K562 = system: K562
A549 = system: A549
IGROV-1 = system: IGROV-1
EKVX = system: EKVX
CCRF-CEM = system: CCRF-CEM
RPMI-8226 = system: RPMI-8226
NCI-H23 = system: NCI-H23
HCT-116 = system: HCT-116
HL-60 = system: HL-60

SMILES	GI50 (HOP-92)	GI50 (DU-145)	GI50 (TK-10)	GI50 (UACC-62)	GI50 (A498)	GI50 (NCI-H522)	GI50 (MDA-N)	GI50 (RXF 393)	GI50 (HT-29)	GI50 (MOLT-4)	GI50 (K562)	GI50 (A549)	GI50 (IGROV-1)	GI50 (EKVX)	GI50 (CCRF-CEM)	GI50 (RPMI-8226)	GI50 (NCI-H23)	GI50 (HCT-116)	GI50 (HL-60)
Nc1cccc(OCc2nc(N)nc(N)c2-c2ccc(Cl)cc2)c1	31.3 µM (inactive)	73.1 µM (inactive)	31.5 µM (inactive)	62.2 µM (inactive)	39.4 µM (inactive)	57.5 µM (inactive)	42.1 µM (inactive)	60 µM (inactive)	39.4 µM (inactive)	26.1 µM (inactive)	23.9 µM (inactive)	35.8 µM (inactive)	37.3 µM (inactive)	52.8 µM (inactive)	13.1 µM (inactive)	37.8 µM (inactive)	43.2 µM (inactive)	44.7 µM (inactive)	23.8 µM (inactive)
CCOC(=O)NC(Nc1ccc(F)cc1)(C(=O)OCC)C(F)(F)F (stereo not given)	> 100 µM (inactive)	> 21.5 µM (inactive)	> 24.7 µM (inactive)	0.121 µM (active)	> 100 µM (inactive)	> 100 µM (inactive)	> 62.1 µM (inactive)	> 100 µM (inactive)	> 100 µM (inactive)	6.71 µM (inactive)	< 0.0307 µM (active)	10.5 µM (inactive)	–	> 100 µM (inactive)	3.28 µM (inactive)	2.65 µM (inactive)	> 100 µM (inactive)	3.12 µM (inactive)	0.526 µM (active)
CC(NC(=O)C(Cc1ccc(OC(=O)c2ccccc2)cc1)NC(=O)OC(C)(C)C)C(=O)NCC(=O)NC(Cc1ccccc1)NC(=O)OCc1ccccc1 (stereo not given)	> 100 µM (inactive)	> 100 µM (inactive)	> 100 µM (inactive)	> 100 µM (inactive)	28.5 µM (inactive)	> 100 µM (inactive)	> 100 µM (inactive)	> 100 µM (inactive)	> 100 µM (inactive)	62.7 µM (inactive)	> 100 µM (inactive)	> 100 µM (inactive)	> 100 µM (inactive)	> 100 µM (inactive)	–	50.6 µM (inactive)	> 100 µM (inactive)	> 100 µM (inactive)	> 100 µM (inactive)
N#Cc1c(-c2ccccc2)c(/N=N/c2ccc(F)cc2)c(=O)n2c1[nH]c1ccccc12	2.18 µM (inactive)	4.48 µM (inactive)	5.57 µM (inactive)	4.82 µM (inactive)	8.02 µM (inactive)	2.18 µM (inactive)	4.17 µM (inactive)	10.4 µM (inactive)	2.92 µM (inactive)	2.3 µM (inactive)	3.18 µM (inactive)	3.08 µM (inactive)	2.69 µM (inactive)	2.45 µM (inactive)	1.26 µM (inactive)	0.708 µM (active)	5.28 µM (inactive)	2.03 µM (inactive)	1.46 µM (inactive)
CC[C@@H]1CC[C@@H]2[C@H](CC[C@]3(C)[C@@H](OC(C)=O)CC[C@@H]23)[C@H]1C(=O)OC	13.4 µM (inactive)	27.4 µM (inactive)	> 100 µM (inactive)	20.1 µM (inactive)	> 100 µM (inactive)	27.2 µM (inactive)	19.5 µM (inactive)	24.6 µM (inactive)	25 µM (inactive)	19.5 µM (inactive)	20 µM (inactive)	24.4 µM (inactive)	24.8 µM (inactive)	25.2 µM (inactive)	22.1 µM (inactive)	19.6 µM (inactive)	24.4 µM (inactive)	17.9 µM (inactive)	13.3 µM (inactive)
c1c[nH]c(C23C4C5C6C4C2C6C53)n1 (stereo not given)	> 100 µM (inactive)	> 100 µM (inactive)	> 100 µM (inactive)	> 100 µM (inactive)	> 100 µM (inactive)	> 100 µM (inactive)	> 100 µM (inactive)	> 100 µM (inactive)	> 100 µM (inactive)	> 100 µM (inactive)	> 100 µM (inactive)	> 100 µM (inactive)	> 100 µM (inactive)	> 100 µM (inactive)	> 100 µM (inactive)	> 100 µM (inactive)	> 100 µM (inactive)	> 100 µM (inactive)	> 100 µM (inactive)
COc1ccc(C(OC(C)=O)C2C(=C(C#N)C#N)c3ccccc3C2=C(C#N)C#N)cc1 (stereo not given)	45.1 µM (inactive)	64.9 µM (inactive)	83.9 µM (inactive)	–	24.1 µM (inactive)	38.2 µM (inactive)	42.1 µM (inactive)	67.9 µM (inactive)	29.9 µM (inactive)	25.9 µM (inactive)	30.1 µM (inactive)	–	65.6 µM (inactive)	39.4 µM (inactive)	21.8 µM (inactive)	25.5 µM (inactive)	25.9 µM (inactive)	35.1 µM (inactive)	18.5 µM (inactive)
O=C1C(Br)=CC2(C=C1Br)CCNC1=C2C(=O)c2[nH]cnc2C1=O	12.3 µM (inactive)	16 µM (inactive)	29.2 µM (inactive)	11.9 µM (inactive)	19 µM (inactive)	14.4 µM (inactive)	1.77 µM (inactive)	16.3 µM (inactive)	15.5 µM (inactive)	41.5 µM (inactive)	12.4 µM (inactive)	18.3 µM (inactive)	–	18.1 µM (inactive)	15 µM (inactive)	14.5 µM (inactive)	12.6 µM (inactive)	14.7 µM (inactive)	4.79 µM (inactive)
Cc1c(-c2ccccc2)cc(O)c2nc3ccccc3n12	10.2 µM (inactive)	> 100 µM (inactive)	> 100 µM (inactive)	11 µM (inactive)	> 100 µM (inactive)	20.4 µM (inactive)	46.8 µM (inactive)	83.6 µM (inactive)	> 100 µM (inactive)	8.28 µM (inactive)	5.82 µM (inactive)	14.5 µM (inactive)	39.5 µM (inactive)	> 100 µM (inactive)	17 µM (inactive)	7.43 µM (inactive)	> 100 µM (inactive)	–	4.97 µM (inactive)
O=c1[nH]nc(-c2ccccc2)n1-c1ccncc1	> 100 µM (inactive)	> 100 µM (inactive)	> 100 µM (inactive)	–	> 100 µM (inactive)	> 100 µM (inactive)	> 100 µM (inactive)	> 100 µM (inactive)	> 100 µM (inactive)	> 100 µM (inactive)	> 100 µM (inactive)	> 100 µM (inactive)	> 100 µM (inactive)	> 100 µM (inactive)	> 100 µM (inactive)	> 100 µM (inactive)	> 100 µM (inactive)	> 100 µM (inactive)	> 100 µM (inactive)
C=CC(c1ccccc1)[C@@]1(OC(C)=O)C(=O)C(=O)OC1C1COC(C)(C)O1 (stereo not given in full)	5.92 µM (inactive)	21.2 µM (inactive)	14.1 µM (inactive)	14.1 µM (inactive)	19.7 µM (inactive)	3.77 µM (inactive)	10.4 µM (inactive)	4.68 µM (inactive)	15.1 µM (inactive)	3.7 µM (inactive)	3.94 µM (inactive)	18 µM (inactive)	15.3 µM (inactive)	17.9 µM (inactive)	2.84 µM (inactive)	5.79 µM (inactive)	18.2 µM (inactive)	11.1 µM (inactive)	2.11 µM (inactive)
CC(C)(Cc1ccccc1)NC1=NCCO1	> 100 µM (inactive)	> 100 µM (inactive)	> 100 µM (inactive)	> 100 µM (inactive)	> 100 µM (inactive)	> 100 µM (inactive)	> 100 µM (inactive)	> 100 µM (inactive)	> 100 µM (inactive)	> 100 µM (inactive)	> 100 µM (inactive)	> 100 µM (inactive)	> 100 µM (inactive)	> 100 µM (inactive)	> 100 µM (inactive)	> 100 µM (inactive)	> 100 µM (inactive)	> 100 µM (inactive)	> 100 µM (inactive)
CC[C@H]1CN(C)[C@H]2Cc3c([nH]c4ccccc34)C(=O)C[C@H]1C2C(=O)OC (stereo not given in full)	> 100 µM (inactive)	> 100 µM (inactive)	> 100 µM (inactive)	> 100 µM (inactive)	> 100 µM (inactive)	> 100 µM (inactive)	> 100 µM (inactive)	> 100 µM (inactive)	> 100 µM (inactive)	73.6 µM (inactive)	–	> 100 µM (inactive)	> 100 µM (inactive)	> 100 µM (inactive)	97.5 µM (inactive)	57.8 µM (inactive)	> 100 µM (inactive)	> 100 µM (inactive)	68.9 µM (inactive)
COC(=O)CNC(=O)CCC(C)[C@H]1CCC2C3C(C[C@H](OC(C)=O)[C@@]21C)[C@@]1(C)CCC2(C[C@H]1C[C@H]3OC(C)=O)OOC1(CC[C@]3(C)C4C[C@H](OC(C)=O)[C@@]5(C)C(CC[C@@H]5C(C)CCC(=O)NCC(=O)OC)C4[C@H](OC(C)=O)C[C@@H]3C1)OO2 (stereo not given in full)	0.942 µM (active)	0.933 µM (active)	1.19 µM (inactive)	–	12 µM (inactive)	0.991 µM (active)	3.44 µM (inactive)	0.931 µM (active)	1.01 µM (active)	0.163 µM (active)	1.38 µM (inactive)	0.914 µM (active)	0.836 µM (active)	0.993 µM (active)	0.244 µM (active)	0.309 µM (active)	1.03 µM (active)	1.99 µM (inactive)	1.11 µM (active)
CCOC(=O)CNC(=O)C(CSC(=O)N(O)c1ccc(Br)cc1)NC(=O)CCC(N)C(=O)OCC (stereo not given)	8.45 µM (inactive)	> 50 µM (inactive)	–	> 50 µM (inactive)	> 50 µM (inactive)	> 50 µM (inactive)	> 50 µM (inactive)	> 50 µM (inactive)	> 50 µM (inactive)	2.96 µM (inactive)	41.9 µM (inactive)	> 50 µM (inactive)	> 50 µM (inactive)	> 50 µM (inactive)	27.4 µM (inactive)	21 µM (inactive)	> 50 µM (inactive)	> 50 µM (inactive)	0.005 µM (active)
